# Results taken from article PMC2195584 (The Journal of Experimental Medicine, 1999).
# Experiments:
# [1] = tested on: Lymph node T cells from CD28-deficient mice; test: Proliferation of retrovirally reconstituted T cells from CD28-deficient mice; type: cell-based, mouse; details: single stimulus, anti-CD3 or PMA alone; 36-h culture; quadruplicate
# [2] = tested on: c-fos promoter in Jurkat cells; test: c-fos luciferase reporter, Jurkat cells; type: cell-based; details: presence and absence of CD28 antibodies, vs wild-type mCD28
# c-Src = details: coexpression in 293 cells; cited from earlier work
molecule,measurement,setting,value
CCCCCCCCCCCCCC(=O)O[C@@H]1[C@@H](C)[C@@]2(O)[C@@H](C=C(CO)C[C@]3(O)C(=O)C(C)=C[C@@H]23)[C@@H]2C(C)(C)[C@]12OC(C)=O [PMA],"proliferation ([3H]thymidine), control retrovirus",[1],proliferated weakly
mutated form of mCD28: CD28 with alanines substituted for prolines 187 and 190,induction of c-fos promoter (in words),[2],significantly impaired in its ability to induce the c-fos promoter
"SIN: SH3 binding protein, SIN (protein, UniProt Q64355 1-560, looked up) Embryonal Fyn-associated …: MAIATSAQLARALYDNTAESPQELSFRRGDVLRVLQREGAGGLDGWCLCSLHGQQGIVPANRVKLLPAGPAPKPSLCPASPTQPGSSCPTPERGCEEQEVYVIPPPARPCSASGLPARSCSPSSDSIYKVPRGNGMQLTASRDVAEVYDVPPNILRAPSSCPYDSPASFSCPVAPVVPQPPREDEAPYDVPLALKPPAELERDPEWEGGREPGPPLYAAPSNLKRASALLNLYEAPEELLANGESRDADEGIYDVPLLGPEPPSPEPPVASSSTDLDTVAQLPTRSSPPQHRPRLPSTESLSRRPLPALPVSEAPAPSPAPSPAPGRKGSIQDRPLPPPPPCLPGYGGLKPEGDPECREVANDPAGPHNEYEGIPMAEEYDYVHLKGVDTAQGSRPLDKAFPVDPELLERGLAERKEALSPEEPLVLSTGDLQLLHFYAGQCQSHYSALQAAVAALVASTQANQPPCLFVPHGKRVVVAAHRLVFVGDTLGRLAASAALRAQVGAAGTMLAQTLRATVLAVKGAALGYPSDTAVQEMARCVAELAGQALRFTTLLDGLLP",c-Src kinase activity induction,c-Src,can be induced
